Test system: DU-145 multicell spheroids with HUVEC/MSC, viability
Assay: Anticancer human tumor DU-145 cell line growth inhibition [IpAb];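 note: spheroids exposed to agents for seven days before measurement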;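 for viability, T/C: percent of DMSO vehicle control viability so 100% = untreated level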
Settings: for viability, T/C: stronger effect = lower value
Source text: Combinatorial screen of targeted agents with ipatasertib and abemaciclib in multi-cell type tumor spheroids
A high-throughput screen of multi-cell type tumor spheroids was designed to identify active combinations of targeted small molecules and ipatasertib or abemaciclib. Complex spheroids include a stromal component modeled by human endothelial cells (HUVEC) and fibroblasts modeled by human mesenchymal stem cells (MSCs). The concentration ranges selected for each drug and investigational agent were based upon clinically achievable concentrations if the clinical Cmax of the agent was known.
Compounds. The drugs and investigational agents: ipatasertib (NSC767898), abemaciclib(NSC768073), selumetinib (NSC741078), trametinib (758246), adavosertib (NSC754352), everolimus (NSC733504), sapanisertib (NSC764658), vemurafenib (NSC761431), venetoclax (NSC766270), copanlisib (NSC809693), apelisib (NSC765974), palbociblib (NSC758247), vemurafenib (NSC761431), dabrafenib (NSC764134), ravoxertinib (NSC781343), BMS-387032 (NSC767048), sotorasib (NSC818433), talazoparib (NSC767125) and afursertib (NSC778305), were obtained from the National Cancer Institute (NCI) Developmental Therapeutics Program Chemical Repository. The FDA-approved anticancer drug set is available from the NCI Developmental Therapeutics Program. […] The stock solutions were prepared in dimethyl sulfoxide (DMSO, Sigma-Aldrich, St. Louis, MO, cat. D2650) at 800-fold the tested concentration and stored at -70 degrees C prior to their use. All drugs and investigational agents were tested over a range starting from a high concentration at or near the clinical Cmax and decreasing in half-log increments. If the clinical Cmax for an agent had not been determined, the highest concentration tested was 10 microM.
NCI60 Cell Culture. NCI60 cell lines were obtained from the NCI Developmental Therapeutics Program Tumor Repository. For each lot of cells, the Repository performed Applied Biosystems AmpFLSTR Identifiler testing with PCR amplification to confirm consistency with the published Identifier STR profile for each cell line. Cells were kept in continuous culture for no more than 20 passages. The optimal seeding densities for each of the cell lines at each time point assessed were determined prior to performing the concentration response studies. Briefly, the NCI60 human tumor lines were grown as monolayers in RPMI 1640 medium supplemented with 10% FBS and 2 mmol/L L-glutamine.
An additional 9 lines were from the NCI60 cell line panel including MDA-MB-231 breast carcinoma, MDA-MB-468 breast carcinoma, MCF7 breast carcinoma, Hs578T breast carcinoma, MALME-3M melanoma, SK-MEL-2 melanoma, SK-OV-3 ovarian carcinoma, DU-145 prostate carcinoma, PC-3 prostate carcinoma, all cell lines along with major genetic alterations are listed on Table 2. Pooled donor human umbilical vein endothelial cells (HUVEC, Lonza, cat. CC-2519) and human mesenchymal stem cells (hMSC, Lonza, cat. PT-2501) were purchased from Lonza (Walkersville, MD).
PDMR cell lines were grown in complete medium (DC medium): Dulbecco's modified Eagle's medium (DMEM)/F12 supplemented with 5% fetal bovine serum (FBS), 2 mM L-glutamine, 100 U/mL penicillin and 100 µg/ml streptomycin, 0.4 µg/ml hydrocortisone, 10 ng/ml epidermal growth factor (EGF) recombinant human protein, 24 µg/mL adenine, and 0.1 mg/mL primocin. During culture from frozen stock vials, PDMR cells were cultured in the same medium containing 10 µM Y-27632 (see Table 3). The PDCs were cultured in complete DMEM/F12 media without 10 microM Y-27632 dihydrochloride for at least two passages prior to the screen. The pooled donor HUVEC and hMSC were cultured in endothelial cell growth medium 2 (PromoCell, Heidelberg, Germany, cat. C-22011) and mesenchymal stem cell growth medium 2 (PromoCell, cat. C-28009), respectively. For all experiments, HUVEC and hMSC were used at passages </=5.
[…]

[1] = curve of first compound, second compound 0.1 µM
[2] = curve of first compound, second compound 0.316 µM
[3] = curve of first compound, second compound 1 µM
[4] = curve of first compound, second compound 3.16 µM
[5] = curve of first compound, second compound 10 µM

**Q.** Which results are given for CC(C)NCC(C(=O)N1CCN(c2ncnc3c2C(C)CC3O)CC1)c1ccc(Cl)cc1 (stereo unspecified)?
**A.** viability, T/C (compound 0.1 µM): 81.1% [middle of 13 runs]; viability, T/C (compound 0.316 µM): 53.8% [middle of 13 runs]; viability, T/C (compound 1 µM): 30.9% [middle of 13 runs]; viability, T/C (compound 3.16 µM): 21.7% [middle of 13 runs]; viability, T/C (compound 10 µM): 17.5% [middle of 13 runs]; IC50 (compound alone, run of 06/01/2021): 381 nM [middle of 13 runs]

**Q.** C=CCn1c(=O)c2cnc(Nc3ccc(N4CCN(C)CC4)cc3)nc2n1-c1cccc(C(C)(C)O)n1 + CC(C)NCC(C(=O)N1CCN(c2ncnc3c2C(C)CC3O)CC1)c1ccc(Cl)cc1 was tested. Which IC50 [1] did it give?
**A.** 82.7 nM

**Q.** And the IC50 [2]?
**A.** < 31.6 nM

**Q.** What about the IC50 [3] of the same molecule?
**A.** < 31.6 nM

**Q.** What about the IC50 [4] of the same molecule?
**A.** < 31.6 nM

**Q.** And the IC50 [5]?
**A.** < 31.6 nM

**Q.** What about the viability, T/C (second compound 0.1 µM, first compound 0.0316 µM) of the same molecule?
**A.** 71%

**Q.** And the viability, T/C (second compound 0.1 µM, first compound 0.1 µM)?
**A.** 47.1%

**Q.** And the viability, T/C (second compound 0.1 µM, first compound 0.316 µM)?
**A.** 26.5%

**Q.** And the viability, T/C (second compound 0.1 µM, first compound 1 µM)?
**A.** 23.9%

**Q.** What about the viability, T/C (second compound 0.1 µM, first compound 3.16 µM) of the same molecule?
**A.** 17.5%

**Q.** And the viability, T/C (second compound 0.1 µM, first compound 10 µM)?
**A.** 13.7%

**Q.** What about the viability, T/C (second compound 0.316 µM, first compound 0.0316 µM) of the same molecule?
**A.** 44.6%

**Q.** And the viability, T/C (second compound 0.316 µM, first compound 0.1 µM)?
**A.** 36.7%

**Q.** And the viability, T/C (second compound 0.316 µM, first compound 0.316 µM)?
**A.** 19.3%

**Q.** What about the viability, T/C (second compound 0.316 µM, first compound 1 µM) of the same molecule?
**A.** 18.8%

**Q.** What about the viability, T/C (second compound 0.316 µM, first compound 3.16 µM) of the same molecule?
**A.** 15.8%

**Q.** And the viability, T/C (second compound 0.316 µM, first compound 10 µM)?
**A.** 12.9%

**Q.** And the viability, T/C (second compound 1 µM, first compound 0.0316 µM)?
**A.** 32.7%

**Q.** What about the viability, T/C (second compound 1 µM, first compound 0.1 µM) of the same molecule?
**A.** 26.6%

**Q.** What about the viability, T/C (second compound 1 µM, first compound 0.316 µM) of the same molecule?
**A.** 13.3%

**Q.** What about the viability, T/C (second compound 1 µM, first compound 1 µM) of the same molecule?
**A.** 15.1%

**Q.** And the viability, T/C (second compound 1 µM, first compound 3.16 µM)?
**A.** 14.3%

**Q.** What about the viability, T/C (second compound 1 µM, first compound 10 µM) of the same molecule?
**A.** 12.6%

**Q.** And the viability, T/C (second compound 3.16 µM, first compound 0.0316 µM)?
**A.** 23%

**Q.** What about the viability, T/C (second compound 3.16 µM, first compound 0.1 µM) of the same molecule?
**A.** 16.1%

**Q.** And the viability, T/C (second compound 3.16 µM, first compound 0.316 µM)?
**A.** 10%

**Q.** What about the viability, T/C (second compound 3.16 µM, first compound 1 µM) of the same molecule?
**A.** 12%

**Q.** And the viability, T/C (second compound 3.16 µM, first compound 3.16 µM)?
**A.** 11.8%

**Q.** And the viability, T/C (second compound 3.16 µM, first compound 10 µM)?
**A.** 10.4%

**Q.** And the viability, T/C (second compound 10 µM, first compound 0.0316 µM)?
**A.** 16.9%

**Q.** What about the viability, T/C (second compound 10 µM, first compound 0.1 µM) of the same molecule?
**A.** 14%

**Q.** And the viability, T/C (second compound 10 µM, first compound 0.316 µM)?
**A.** 8.4%

**Q.** What about the viability, T/C (second compound 10 µM, first compound 1 µM) of the same molecule?
**A.** 10.6%

**Q.** What about the viability, T/C (second compound 10 µM, first compound 3.16 µM) of the same molecule?
**A.** 9.3%

**Q.** What about the viability, T/C (second compound 10 µM, first compound 10 µM) of the same molecule?
**A.** 9.33%

**Q.** What does the source list for Cn1cnc2c(F)c(Nc3ccc(Br)cc3Cl)c(C(=O)NOCCO)cc21 + CC(C)NCC(C(=O)N1CCN(c2ncnc3c2C(C)CC3O)CC1)c1ccc(Cl)cc1?
**A.** IC50 [1]: 158 nM; IC50 [2]: < 9.49 nM; IC50 [3]: < 9.49 nM; IC50 [4]: < 9.49 nM; IC50 [5]: < 9.49 nM; viability, T/C (second compound 0.1 µM, first compound 0.00949 µM): 64.7%; viability, T/C (second compound 0.1 µM, first compound 0.03 µM): 62.4%; viability, T/C (second compound 0.1 µM, first compound 0.0949 µM): 52.3%; viability, T/C (second compound 0.1 µM, first compound 0.3 µM): 41.3%; viability, T/C (second compound 0.1 µM, first compound 0.949 µM): 46.5%; viability, T/C (second compound 0.1 µM, first compound 3 µM): 34.9%; viability, T/C (second compound 0.316 µM, first compound 0.00949 µM): 44.7%; viability, T/C (second compound 0.316 µM, first compound 0.03 µM): 41.9%; viability, T/C (second compound 0.316 µM, first compound 0.0949 µM): 38.8%; viability, T/C (second compound 0.316 µM, first compound 0.3 µM): 33.1%; viability, T/C (second compound 0.316 µM, first compound 0.949 µM): 32.9%; viability, T/C (second compound 0.316 µM, first compound 3 µM): 25%; viability, T/C (second compound 1 µM, first compound 0.00949 µM): 31.4%; viability, T/C (second compound 1 µM, first compound 0.03 µM): 30.4%; viability, T/C (second compound 1 µM, first compound 0.0949 µM): 27.6%; viability, T/C (second compound 1 µM, first compound 0.3 µM): 23%; viability, T/C (second compound 1 µM, first compound 0.949 µM): 21.5%; viability, T/C (second compound 1 µM, first compound 3 µM): 19.2%; viability, T/C (second compound 3.16 µM, first compound 0.00949 µM): 18.2%; viability, T/C (second compound 3.16 µM, first compound 0.03 µM): 17%; viability, T/C (second compound 3.16 µM, first compound 0.0949 µM): 16.5%; viability, T/C (second compound 3.16 µM, first compound 0.3 µM): 14.3%; viability, T/C (second compound 3.16 µM, first compound 0.949 µM): 14.5%; viability, T/C (second compound 3.16 µM, first compound 3 µM): 12%; viability, T/C (second compound 10 µM, first compound 0.00949 µM): 16.2%; viability, T/C (second compound 10 µM, first compound 0.03 µM): 13.7%; viability, T/C (second compound 10 µM, first compound 0.0949 µM): 13.3%; viability, T/C (second compound 10 µM, first compound 0.3 µM): 11.8%; viability, T/C (second compound 10 µM, first compound 0.949 µM): 11.4%; viability, T/C (second compound 10 µM, first compound 3 µM): 10.4%
